Measured values published in patent publication EP3271365B1, “BI[…] AGENTS CONTAINING THE CTI PHARMACOPHORE” (Pfizer Inc., priority 2015, dated 2016).
pIC50: −log10 of the molar value.

Assays:
Experiment in all cases: Cytotoxicity assay for payloads (MTS cell viability)
Type in all cases: cell-based
HL60 (leukemia) = conditions: Homo sapiens, HL-60, 96 h, HL60 cells, incubated four days, read-out: Free Payload Potencies HL60 (IC50)
Protocol: (§1) Cancer cell lines were obtained from ATCC (Manassas, VA). N87 (human gastric carcinoma derived from metastatic liver site). HL60 (leukemia) and MDA-MB-361 DYT2 (human breast carcinoma MDA-MB-361) were grown in RPMI 1640 media . All media were supplemented with 10% fetal bovine serum, 1% sodium pyruvate, and 1% L-glutamine (Invitrogen, Grand Island, NY). Human umbilical vein endothelial cells (HUVEC) were obtained from Lonza (Allendale, NJ) and maintained in EGM2 media supplemented with EGM-2 SingleQuots (Lonza # CC-4176). All cells were maintained in a humidified incubator (37°C, 5% CO2).
(§2) Cells in 100 µl medium were cultured in a 96-well plate. Cancer cell lines treated with the indicated compounds by adding 50 µl of 3X stocks in duplicate at 10 concentrations. Cells were incubated with compounds for four days, then 30 µl of CellTiter® 96 AQueous One MTS Solution (Promega Cat # G3582) was added to the cells, incubated 1.5 hr at 37°C, then absorbance measured at 490 nm on a Victor plate reader (Perkin Elmer, Waltham, MA). Relative cell viability was determined as a percentage of untreated control wells. IC50 values were calculated using four parameter logistic model #203 with XLfit v4.2 (IDBS, Guildford, Surry, UK).

[1] = test system: N87 (human gastric carcinoma derived from metastatic liver site); conditions: 96 h, N87 cells, incubated four days, read-out: Free Payload Potencies N87 (IC50)
Protocol: as §1, §2

[2] = test system: MDA-MB-361 DYT2 (human breast carcinoma MDA-MB-361); conditions: 96 h, MDA-MB-361 DYT2 cells, incubated four days, read-out: Free Payload Potencies DYT2 (IC50)
Protocol: as §1, §2

SMILES | pIC50 (HL60 (leukemia)) | pIC50 [1] | pIC50 [2]
CC(=O)Oc1cc2c(c3c(C)csc13)[C@H](CCl)CN2C(=O)C12CC(C(=O)N3C[C@@H](CCl)c4c3cc(OC(C)=O)c3scc(C)c43)(C1)C2 [Compound 7, (8S,8'S)-(bicyclo[1.1.1]pentane-1,3-dicarbonyl)bis(8-(chloromethyl)-1-methyl-7,8-dihydro-6H-thieno[3,2-e]indole-6,4-diyl) diacetate] | > 11.30 | 10.66 | 9.73
CC(=O)Oc1cc2c(c3c(C)csc13)[C@@H](CCl)CN2C(=O)C12CC(C(=O)N3C[C@H](CCl)c4c3cc(OC(C)=O)c3scc(C)c43)(C1)C2 [Compound 12, (8R,8'R)-(bicyclo[1.1.1]pentane-1,3-dicarbonyl)bis(8-(chloromethyl)-1-methyl-7,8-dihydro-6H-thieno[3,2-e]indole-6,4-diyl) diacetate] | 9.74 | 8.65 | 8.29
CC(=O)Oc1cc2c(c3sc(C)cc13)[C@H](CCl)CN2C(=O)C12CC(C(=O)N3C[C@@H](CCl)c4c3cc(OC(C)=O)c3cc(C)sc43)(C1)C2 [Compound 17, bicyclo[1.1.1]pentane-1,3-diylbis[carbonyl(8S)-8-(chloromethyl)-2-methyl-7,8-dihydro-6H-thieno[2,3-e]indole-6,4-diyl] diacetate] | 10.08 | 8.89 | 8.22
CC(=O)Oc1cc2c(c3c(C)csc13)[C@H](CCl)CN2C(=O)CCCC(=O)N1C[C@@H](CCl)c2c1cc(OC(C)=O)c1scc(C)c21 [Compound 24, (8S,8'S)-glutaroylbis(8-(chloromethyl)-1-methyl-7,8-dihydro-6H-thieno[3,2-e]indole-6,4-diyl) diacetate] | > 11.30 | 10.62 | 9.77
CC(=O)Oc1cc2c(c3c(C)csc13)[C@@H](CCl)CN2C(=O)CCCC(=O)N1C[C@H](CCl)c2c1cc(OC(C)=O)c1scc(C)c21 [Compound 25, (8R,8'R)-glutaroylbis(8-(chloromethyl)-1-methyl-7,8-dihydro-6H-thieno[3,2-e]indole-6,4-diyl) diacetate] | – | 7.38 | < 7.00
Cc1csc2c(O)cc3c(c12)[C@H](CCl)CN3C(=O)CCCC(=O)N1C[C@@H](CCl)c2c1cc(O[C@@H]1O[C@H](C(=O)O)[C@@H](O)[C@H](O)[C@H]1O)c1scc(C)c21 [Compound 57, (8S)-8-(chloromethyl)-6-{5-[(8S)-8-(chloromethyl)-4-hydroxy-1-methyl-7,8-dihydro-6H-thieno[3,2-e]indol-6-yl]-5-oxopentanoyl}-1-methyl-7,8-dihydro-6H-thieno[3,2-e]indol-4-yl beta-D-glucopyranosiduronic acid] | 9.06 | 7.96 | 7.42
Cc1csc2c(O)cc3c(c12)[C@H](CCl)CN3C(=O)CCCC(=O)N1C[C@@H](CCl)c2c1cc(OP(=O)(O)O)c1scc(C)c21 [Compound 61, (8S)-8-(chloromethyl)-6-{5-[(8S)-8-(chloromethyl)-4-hydroxy-1-methyl-7,8-dihydro-6H-thieno[3,2-e]indol-6-yl]-5-oxopentanoyl}-1-methyl-7,8-dihydro-6H-thieno[3,2-e]indol-4-yl dihydrogen phosphate] | 9.09 | 7.86 | 7.54
